± gives the standard deviation of the averaged measurements.
What was measured:
Details in all cases: 72 h
Caco-2 [1] = experiment: cell viability relative to DMSO; higher = less toxic
Calu-3 [2] = experiment: as above
HepG2 [3] = experiment: as above
U2OS [4] = experiment: as above
Vero E6 [5] = experiment: as above
Caco-2 [6] = experiment: relative viability EC50 (midpoint between 100% and the lowest measured viability); higher = less toxic
Calu-3 [7] = experiment: as above
HepG2 [8] = experiment: as above
U2OS [9] = experiment: as above
Vero E6 [10] = experiment: as above
Caco-2 [11] = experiment: drug sensitivity score (DSS) for viability; higher = more toxic; extreme values may be limits of the assay
Calu-3 [12] = experiment: as above
HepG2 [13] = experiment: as above
U2OS [14] = experiment: as above
Vero E6 [15] = experiment: as above

SMILES | cell viability (Caco-2 [1]; 1 nM) | cell viability (Caco-2 [1]; 10 nM) | cell viability (Caco-2 [1]; 100 nM) | cell viability (Caco-2 [1]; 1000 nM) | cell viability (Caco-2 [1]; 10000 nM) | cell viability (Calu-3 [2]; 1 nM) | cell viability (Calu-3 [2]; 10 nM) | cell viability (Calu-3 [2]; 100 nM) | cell viability (Calu-3 [2]; 1000 nM) | cell viability (Calu-3 [2]; 10000 nM) | cell viability (HepG2 [3]; 1 nM) | cell viability (HepG2 [3]; 10 nM) | cell viability (HepG2 [3]; 100 nM) | cell viability (HepG2 [3]; 1000 nM) | cell viability (HepG2 [3]; 10000 nM) | cell viability (U2OS [4]; 1 nM) | cell viability (U2OS [4]; 10 nM) | cell viability (U2OS [4]; 100 nM) | cell viability (U2OS [4]; 1000 nM) | cell viability (U2OS [4]; 10000 nM) | cell viability (Vero E6 [5]; 1 nM) | cell viability (Vero E6 [5]; 10 nM) | cell viability (Vero E6 [5]; 100 nM) | cell viability (Vero E6 [5]; 1000 nM) | cell viability (Vero E6 [5]; 10000 nM) | relative viability EC50 (Caco-2 [6]) | relative viability EC50 (Calu-3 [7]) | relative viability EC50 (HepG2 [8]) | relative viability EC50 (U2OS [9]) | relative viability EC50 (Vero E6 [10]) | drug sensitivity score (Caco-2 [11]) | drug sensitivity score (Calu-3 [12]) | drug sensitivity score (HepG2 [13]) | drug sensitivity score (U2OS [14]) | drug sensitivity score (Vero E6 [15])
c1ccc(-c2ccc(CNc3nc(-c4ccccn4)nnc3-c3ccccc3)cc2)cc1 [ML228] | 104% | 98.2% | 89.3% | 49.5% | 13.6% | 96% | 102% | 101% | 48.6% | 17.5% | 91.4% | 104% | 103% | 31.4% | 21% | 100% | 99.1% | 94.3% | 38.8% | 3.6% | 93.1% | 92.3% | 97% | 9.5% | 4.5% | 0.692 µM | 0.818 µM | 0.484 µM | 0.685 µM | 0.339 µM | 11.2 | 10.7 | 12.5 | 12.8 | 16.9
COc1ccc(-c2cnc3c(-c4cccc5ncccc45)cnn3c2)cc1 [ML347] | 107 ± 14% | 100 ± 5.3% | 96.5 ± 2% | 96.05 ± 0.35% | 98.9 ± 8.6% | 106 ± 9.3% | 101 ± 7.9% | 99.5 ± 2.8% | 101 ± 4.9% | 93.4 ± 8.5% | 105 ± 4% | 96 ± 9.3% | 99.3 ± 3.2% | 98.1 ± 0.57% | 97.2 ± 6.9% | 101 ± 2% | 100 ± 3.1% | 105 ± 6.3% | 102 ± 1.8% | 96.8 ± 4.3% | 102% | 100% | 99% | 99.3% | 105% | > 10 µM | > 10 µM | > 10 µM | > 10 µM | > 10 µM | 0 | 0.1 ± 0.14 | 0 | 0 | 0
NC(=O)C[S+]([O-])C(c1ccccc1)c1ccccc1 (stereo not given) [MODAFINIL] | 103 ± 3.7% | 99.5 ± 2.2% | 109 ± 10% | 100.4 ± 0.42% | 97 ± 2.3% | 93 ± 6.5% | 99.4 ± 0.57% | 99.3 ± 6.7% | 102.2 ± 0.35% | 95.8 ± 7.3% | 102 ± 17% | 103 ± 1.9% | 99.2 ± 12% | 96.1 ± 15% | 95.3 ± 4.4% | 99.2 ± 1.5% | 97.8 ± 2.8% | 99.7 ± 2.9% | 98.2 ± 3% | 100 ± 4.6% | 97.3 ± 6% | 103 ± 14% | 96.2 ± 15% | 88.6 ± 4% | 104 ± 5.5% | > 10 µM | > 10 µM | > 10 µM | > 10 µM | > 10 µM | 0 | 0 | 0.55 ± 0.78 | 0 | 0
Cc1nc2c(O)cccc2c(=O)[nH]1 [NU-1025] | 101% | 92.4% | 96.6% | 96.7% | 101% | 96.6% | 99.6% | 102% | 106% | 99.8% | 104% | 109% | 98.4% | 109% | 101% | 104% | 100% | 100% | 99.9% | 101% | 99.7% | 102% | 98.7% | 100% | 98.1% | > 10 µM | > 10 µM | > 10 µM | > 10 µM | > 10 µM | 0 | 0 | 0 | 0 | 0
